Like-named read-outs stand apart in the source and are kept apart here.
Columns and labels:
Assay type in all cases: in vivo
[1] = test system: Diabrotica Balteata (Corn Root Worm); assay: Example B1: Diabrotica balteata (corn root worm), maize sprouts sprayed, L2 larvae; details: 96 h, read-out: control in at least one of the two categories (mortality or growth inhibition)
Summary of the method: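 Spray test: maize sprouts on agar, aqueous dilutions of 10′000 ppm DMSO stock; after drying, 6–10 L2 larvae/well. Read-out at 4 d post-infestation: mortality and growth inhibition vs untreated.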

[2] = test system: Euschistus heros (Neotropical Brown Stink Bug); assay: Example B2: Euschistus heros (neotropical brown stink bug), soybean leaves sprayed, N2 nymphs; details: 120 h, read-out: control in at least one of the two categories (mortality or growth inhibition)
Description: Soybean leaves on agar in 24-well microtiter plates were sprayed with aqueous test solutions prepared from 10′000 ppm DMSO stock solutions. After drying the leaves were infested with N2 nymphs. The samples were assessed for mortality and growth inhibition in comparison to untreated samples 5 days after infestation.

[3] = test system: Chilo suppressalis (Striped Rice Stemborer); assay: Example B3: Chilo suppressalis (striped rice stemborer), artificial diet, L2 larvae; details: 144 h, read-out: control in at least one of the three categories (mortality, anti-feedant effect, or growth inhibition)
Summary of the method: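 Scoring covers mortality, anti-feedant effect and growth inhibition at 6 days post-infestation, relative to untreated diet, with activity defined as at least one category above untreated. Test solutions were aqueous, made from 10'000 ppm DMSO stocks, and applied to artificial diet before drying and infestation with L2 larvae.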

[4] = test system: Plutella xylostella (Diamond Back Moth); assay: Example B4: Plutella xylostella (diamond back moth), artificial diet, eggs, 24-well; details: 192 h, read-out: control in at least one of the two categories (mortality or growth inhibition)
Description: 24-well microtiter plates with artificial diet were treated with aqueous test solutions prepared from 10′000 ppm DMSO stock solutions by pipetting. After drying, Plutella eggs were pipetted through a plastic stencil onto a gel blotting paper and the plate was closed with it. The samples were assessed for mortality and growth inhibition in comparison to untreated samples 8 days after infestation.

[5] = test system: Myzus persicae (Green Peach Aphid); assay: Example B6: Myzus persicae (green peach aphid) intrinsic activity, sucrose solution; details: 120 h
Summary of the method: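 Mortality was read 5 days after infestation. Aphids on pea seedlings fed through a stretched Parafilm membrane on inverted 24-well plates containing sucrose solution mixed with test compound, which was diluted from 10′000 ppm DMSO stock.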

[6] = test system: Spodoptera littoralis (Egyptian Cotton Leaf Worm); assay: Example B7: Spodoptera littoralis (Egyptian cotton leaf worm), cotton leaf discs sprayed, L1 larvae; details: foliar, 72 h, read-out: control in at least one of the three categories (mortality, anti-feedant effect, or growth inhibition)
Summary of the method: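 Read-out: mortality, feeding deterrence and growth inhibition, assessed 3 days after infestation relative to untreated samples. Sprayed, dried cotton leaf discs on agar each received five first-instar (L1) larvae; sprays were aqueous solutions prepared from 10′000 ppm DMSO stocks.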

[7] = application rate of 200 ppm, 4 days after infestation, L2 larvae
[8] = application rate of 200 ppm, 5 days after infestation, N2 nymphs
[9] = application rate of 200 ppm, 6 days after infestation, L2 larvae
[10] = application rate of 200 ppm, 8 days after infestation, eggs
[11] = test rate of 12 ppm, 5 days after infestation, intrinsic activity, read-out: mortality
[12] = application rate of 200 ppm, 3 days after infestation, L1 larvae

CC(c1ncnn1-c1ccc(C#N)cn1)N(C(=O)OCc1ccccc1)c1ncnc2c(C(F)(F)F)cc(C(F)(F)F)cc12 (stereo not drawn) [P.10, benzyl N-[6,8-bis(trifluoromethyl)quina-zolin-4-yl]-N-[1-[2-(5-cyano-2-pyridyl)-1,2,4-triazol-3-yl]ethyl]carbamate]
≥ 80%: percent control (mortality or growth inhibition) at 200 ppm [1] | percent control (mortality or growth inhibition) at 200 ppm [2] | percent control (mortality, anti-feedant effect or growth inhibition) at 200 ppm [3] | percent control (mortality or growth inhibition) at 200 ppm [4] | mortality at 12 ppm [5] | percent control (mortality, anti-feedant effect or growth inhibition) at 200 ppm [6]

CC(Nc1ncnc2c(C(F)(F)F)cc(C(F)(F)F)cc12)c1ncnn1-c1ncccn1 (stereo not drawn) [P.16, N-[1-(2-pyrimidin-2-yl-1,2,4-triazol-3-yl)ethyl]-6,8-bis(trifluoromethyl)quinazolin-4-amine]
≥ 80%: percent control (mortality or growth inhibition) at 200 ppm [1, 7] | percent control (mortality or growth inhibition) at 200 ppm [2, 8] | percent control (mortality, anti-feedant effect or growth inhibition) at 200 ppm [3, 9] | percent control (mortality or growth inhibition) at 200 ppm [4, 10] | mortality at 12 ppm [5, 11] | percent control (mortality, anti-feedant effect or growth inhibition) at 200 ppm [6, 12]

CC(Nc1ncnc2c(C(F)(F)F)cc(Cl)cc12)c1ncnn1-c1ncccn1 (stereo not drawn) [P.40, 6-chloro-N-[1-(2-pyrimidin-2-yl-1,2,4-triazol-3-yl)ethyl]-8-(trifluoromethyl)quinazolin-4-amine]
≥ 80%: percent control (mortality or growth inhibition) at 200 ppm [1, 7] | percent control (mortality or growth inhibition) at 200 ppm [2, 8] | percent control (mortality, anti-feedant effect or growth inhibition) at 200 ppm [3, 9] | percent control (mortality or growth inhibition) at 200 ppm [4, 10] | mortality at 12 ppm [5, 11] | percent control (mortality, anti-feedant effect or growth inhibition) at 200 ppm [6, 12]

CC(c1ncnn1-c1ncccn1)N(C)c1ncnc2c(Br)cc(C(F)(F)F)cc12 (stereo not drawn) [P.71, 8-bromo-N-methyl-N-[1-(2-pyrimidin-2-yl-1,2,4-triazol-3-yl)ethyl]-6-(trifluoromethyl)quinazolin-4-amine]
≥ 80%: percent control (mortality or growth inhibition) at 200 ppm [1, 7] | percent control (mortality or growth inhibition) at 200 ppm [2, 8] | percent control (mortality, anti-feedant effect or growth inhibition) at 200 ppm [3, 9] | percent control (mortality or growth inhibition) at 200 ppm [4, 10] | mortality at 12 ppm [5, 11]

C[C@@H](c1ncnn1-c1ncccn1)N(C)c1ncnc2c(C(F)(F)F)cc(C(=O)C3CC3)cc12 [P.82, cyclopropyl-[4-[methyl-[(1S)-1-(2-pyrimidin-2-yl-1,2,4-triazol-3-yl)ethyl]amino]-8-(trifluoromethyl)quinazolin-6-yl]methanone]
≥ 80%: percent control (mortality or growth inhibition) at 200 ppm [1, 7] | percent control (mortality or growth inhibition) at 200 ppm [2, 8] | percent control (mortality, anti-feedant effect or growth inhibition) at 200 ppm [3, 9] | percent control (mortality or growth inhibition) at 200 ppm [4, 10] | mortality at 12 ppm [5, 11]

C[C@@H](c1ncnn1-c1ncccn1)N(C)c1ncnc2c(C(F)(F)F)cc(SC(F)(F)F)cc12 [P.84, N-methyl-N-[(1S)-1-(2-pyrimidin-2-yl-1,2,4-triazol-3-yl)ethyl]-8-(trifluoromethyl)-6-(trifluoromethylsulfanyl) quinazolin-4-amine]
≥ 80%: percent control (mortality or growth inhibition) at 200 ppm [1, 7] | percent control (mortality or growth inhibition) at 200 ppm [2, 8] | percent control (mortality, anti-feedant effect or growth inhibition) at 200 ppm [3, 9] | percent control (mortality or growth inhibition) at 200 ppm [4, 10] | mortality at 12 ppm [5, 11]

C[C@H](Nc1ncnc2c(C(F)(F)F)cc(I)cc12)c1ncnn1-c1ncccn1 [P.87, 6-iodo-N-[(1S)-1-(2-pyrimidin-2-yl-1,2,4-triazol-3-yl)ethyl]-8-(trifluoromethyl)quinazolin-4-amine]
≥ 80%: percent control (mortality or growth inhibition) at 200 ppm [1, 7] | percent control (mortality or growth inhibition) at 200 ppm [2, 8] | percent control (mortality, anti-feedant effect or growth inhibition) at 200 ppm [3, 9] | percent control (mortality or growth inhibition) at 200 ppm [4, 10] | mortality at 12 ppm [5, 11]

COCN(c1ncnc2c(C(F)(F)F)cc(C(F)(F)F)cc12)[C@@H](C)c1ncnn1-c1ccc(C#N)cn1 [P.169, 6-[5-[(1S)-1-[[6,8-bis(trifluoromethyl)quina-zolin-4-yl]-(methoxymethyl)amino]ethyl]-1,2,4-triazol-1-yl]pyridine-3-carbonitrile]
≥ 80%: percent control (mortality or growth inhibition) at 200 ppm [1, 7] | percent control (mortality or growth inhibition) at 200 ppm [2, 8] | percent control (mortality, anti-feedant effect or growth inhibition) at 200 ppm [3, 9] | percent control (mortality or growth inhibition) at 200 ppm [4, 10] | mortality at 12 ppm [5, 11] | percent control (mortality, anti-feedant effect or growth inhibition) at 200 ppm [6, 12]

CC(Nc1ncnc2c(C(F)(F)F)cc(OC(F)(F)F)cc12)c1ncnn1-c1ccc(C#N)cn1 (stereo not drawn) [P.220, 6-[5-[1-[[6-(trifluoromethoxy)-8-(trifluoromethyl)quinazolin-4-yl]amino]ethyl]-1,2,4-triazol-1-yl]pyridine-3-carbonitrile]
≥ 80%: percent control (mortality or growth inhibition) at 200 ppm [1, 7] | percent control (mortality or growth inhibition) at 200 ppm [2, 8] | percent control (mortality, anti-feedant effect or growth inhibition) at 200 ppm [3, 9] | percent control (mortality or growth inhibition) at 200 ppm [4, 10] | mortality at 12 ppm [5, 11] | percent control (mortality, anti-feedant effect or growth inhibition) at 200 ppm [6, 12]

C=CCN(c1ncnc2c(C(F)(F)F)cc(C(F)(F)F)cc12)C(C)c1ncnn1-c1ccc(C#N)cn1 (stereo not drawn) [P.260, 6-[5-[1-[allyl-[6,8-bis(trifluoromethyl)quina-zolin-4-yl]amino]ethyl]-1,2,4-triazol-1-yl]pyridine-3-carbonitrile]
≥ 80%: percent control (mortality or growth inhibition) at 200 ppm [1, 7] | percent control (mortality or growth inhibition) at 200 ppm [2, 8] | percent control (mortality, anti-feedant effect or growth inhibition) at 200 ppm [3, 9] | percent control (mortality or growth inhibition) at 200 ppm [4, 10] | mortality at 12 ppm [5, 11] | percent control (mortality, anti-feedant effect or growth inhibition) at 200 ppm [6, 12]

C#CCN(c1ncnc2c(C(F)(F)F)cc(C(F)(F)F)cc12)C(C)c1ncnn1-c1ccc(C#N)cn1 (stereo not drawn) [P.261, 6-[5-[1-[[6,8-bis(trifluoromethyl)quina-zolin-4-yl]-prop-2-ynyl-amino]ethyl]-1,2,4-triazol-1-yl]pyridine-3-carbonitrile]
≥ 80%: percent control (mortality or growth inhibition) at 200 ppm [1, 7] | percent control (mortality or growth inhibition) at 200 ppm [2, 8] | percent control (mortality, anti-feedant effect or growth inhibition) at 200 ppm [3, 9] | percent control (mortality or growth inhibition) at 200 ppm [4, 10] | percent control (mortality, anti-feedant effect or growth inhibition) at 200 ppm [6, 12]

C[C@@H](c1ncnn1-c1ncccn1)N(C)c1ncnc2c(C(F)(F)F)cc(S(=O)(=O)C(F)(F)F)cc12 [P.262, N-methyl-N-[(1S)-1-(2-pyrimidin-2-yl-1,2,4-triazol-3-yl)ethyl]-8-(trifluoromethyl)-6-(trifluoromethylsulfonyl) quinazolin-4-amine]
≥ 80%: percent control (mortality or growth inhibition) at 200 ppm [1, 7] | percent control (mortality or growth inhibition) at 200 ppm [2, 8] | percent control (mortality, anti-feedant effect or growth inhibition) at 200 ppm [3, 9] | percent control (mortality or growth inhibition) at 200 ppm [4, 10] | mortality at 12 ppm [5, 11] | percent control (mortality, anti-feedant effect or growth inhibition) at 200 ppm [6, 12]

C[C@@H](c1ncnn1-c1ncccn1)N(C)c1ncnc2c(C(F)(F)F)cc(C(F)(F)C3CC3)cc12 [P.276, 6-[cyclopropyl(difluoro)meth-yl]-N-methyl-N-[(1S)-1-(2-pyrimidin-2-yl-1,2,4-triazol-3-yl)ethyl]-8-(trifluromethyl)quinazolin-4-amine]
≥ 80%: percent control (mortality or growth inhibition) at 200 ppm [1, 7] | percent control (mortality or growth inhibition) at 200 ppm [2, 8] | percent control (mortality, anti-feedant effect or growth inhibition) at 200 ppm [3, 9] | percent control (mortality or growth inhibition) at 200 ppm [4, 10] | percent control (mortality, anti-feedant effect or growth inhibition) at 200 ppm [6, 12]
